Measurements as given in patent US11234437B2 (priority 2017, dated 2022).

How the values were obtained:
Gaeumannomyces graminis = Gaeumannomyces graminis / liquid culture (take-all of cereals); assay type: cell-based; conditions: compared to untreated control
Method: (§1) Mycelial fragments of the fungus from cryogenic storage were directly mixed into nutrient broth (PDB potato dextrose broth). After placing a (DMSO) solution of test compound into a microtiter plate (96-well format), the nutrient broth containing the fungal spores is added. The test plates are incubated at 24° C. and the inhibition of growth is determined photometrically 4-5 days after application.

[1] = tested on: Magnaporthe grisea (Pyricularia oryzae); experiment: microbe, parasite or virus in culture; assay type: cell-based; conditions: read-out: control of Magnaporthe grisea
[2] = tested on: Monographella nivalis (Microdochium nivale); experiment: Monographella nivalis (Microdochium nivale) / liquid culture (foot rot cereals); assay type: cell-based; conditions: compared to untreated control
Method: Monographella nivalis (Microdochium nivale)/Liquid Culture (Foot Rot Cereals)
as §1, with “Conidia” for “Mycelial fragments”, “are” for “were”

[3] = tested on: Gibberella zeae (Fusarium graminearum); experiment: whole plant or invertebrate; assay type: in vivo; conditions: in Triticum aestivum, read-out: control of Gibberella zeae

Compound	inhibition of growth at 20 ppm (Gaeumannomyces graminis) [%]	inhibition of growth at 20 ppm [1] [%]	inhibition of growth at 20 ppm [2] [%]	pest or weed control at 200 ppm [3] [%]	melting point [°C]
CC(C)C[C@@](C)(Cc1ccccc1)NC(=O)c1cnc2c(F)cccc2c1 [Compound F-1, N-[(1S)-1-benzyl-1,3-dimethyl-butyl]-8-fluoro-quinoline-3-carboxamide]	≥ 80	≥ 80	≥ 80	–	–
CC(C)C[C@](C)(Cc1ccccc1)NC(=O)c1cnc2c(F)cccc2c1 [Compound F-2, N-[(1R)-1-benzyl-1,3-dimethyl-butyl]-8-fluoro-quinoline-3-carboxamide]	≥ 80	≥ 80	≥ 80	–	–
CC(C)C[C@@](C)(Cc1ccccc1)NC(=O)c1cnc2ccccc2c1 [Compound F-3, N-[(1S)-1-benzyl-1,3-dimethyl-butyl]quinoline-3-carboxamide]	≥ 80	≥ 80	≥ 80	–	–
CC(C)C[C@](C)(Cc1ccccc1)NC(=O)c1cnc2ccccc2c1 [Compound F-4, N-[(1R)-1-benzyl-1,3-dimethyl-butyl]quinoline-3-carboxamide]	≥ 80	≥ 80	–	–	–
C=C(C)C[C@](C)(Cc1ccccc1)NC(=O)c1cnc2c(F)cccc2c1 [Compound F-5, N-[(1R)-1-benzyl-1,3-dimethyl-but-3-enyl]-8-fluoro-quinoline-3-carboxamide]	–	≥ 80	≥ 80	≥ 80	–
C=C(C)C[C@@](C)(Cc1ccccc1)NC(=O)c1cnc2c(F)cccc2c1 [Compound F-6, N-[(1S)-1-benzyl-1,3-dimethyl-but-3-enyl]-8-fluoro-quinoline-3-carboxamide]	≥ 80	–	≥ 80	≥ 80	–
C[C@](Cc1ccccc1)(CC(F)(F)F)NC(=O)c1cnc2c(F)cccc2c1 [Compound F-7, N-[(1S)-1-benzyl-3,3,3-trifluoro-1-methyl-propyl]-8-fluoro-quinoline-3-carboxamide]	–	≥ 80	–	≥ 80	–
C[C@@](Cc1ccccc1)(CC(F)(F)F)NC(=O)c1cnc2c(F)cccc2c1 [Compound F-8, N-[(1R)-1-benzyl-3,3,3-trifluoro-1-methyl-propyl]-8-fluoro-quinoline-3-carboxamide]	–	≥ 80	–	–	–
CC(C)(C)C[C@@](C)(Cc1ccccc1)NC(=O)c1cnc2c(F)cccc2c1 [Compound F-9, N-[(1S)-1-benzyl-1,3,3-trimethyl-butyl]-8-fluoro-quinoline-3-carboxamide]	≥ 80	–	≥ 80	≥ 80	–
CC(C)(C)C[C@](C)(Cc1ccccc1)NC(=O)c1cnc2c(F)cccc2c1 [Compound F-10, N-[(1R)-1-benzyl-1,3,3-trimethyl-butyl]-8-fluoro-quinoline-3-carboxamide]	≥ 80	–	–	≥ 80	–
C=C(C)C[C@](C)(Cc1ccccc1)NC(=O)c1cnc2c(F)c(F)ccc2c1 [Compound F-11, N-[(1R)-1-benzyl-1,3-dimethyl-but-3-enyl]-7,8-difluoro-quinoline-3-carboxamide]	–	≥ 80	–	≥ 80	–
C=C(C)C[C@@](C)(Cc1ccccc1)NC(=O)c1cnc2c(F)c(F)ccc2c1 [Compound F-12, N-[(1S)-1-benzyl-1,3-dimethyl-but-3-enyl]-7,8-difluoro-quinoline-3-carboxamide]	–	≥ 80	≥ 80	–	–
CC(C)C[C@](C)(Cc1ccccc1)NC(=O)c1cnc2c(F)c(F)ccc2c1 [Compound F-14, N-[(1R)-1-benzyl-1,3-dimethyl-butyl]-7,8-difluoro-quinoline-3-carboxamide]	–	≥ 80	–	–	–
CC(C)(F)C[C@@](C)(Cc1ccccc1)NC(=O)c1cnc2c(F)cccc2c1 [Compound F-15, N-[(1R)-1-benzyl-3-fluoro-1,3-dimethyl-butyl]-8-fluoro-quinoline-3-carboxamide]	–	≥ 80	≥ 80	≥ 80	–
CC(C)(F)C[C@](C)(Cc1ccccc1)NC(=O)c1cnc2c(F)cccc2c1 [Compound F-16, N-[(1S)-1-benzyl-3-fluoro-1,3-dimethyl-butyl]-8-fluoro-quinoline-3-carboxamide]	–	≥ 80	≥ 80	≥ 80	–
Cc1cccc2cc(C(=O)N[C@](C)(Cc3ccccc3)CC(F)(F)F)cnc12 [Compound F-18, N-[(1R)-1-benzyl-3,3,3-trifluoro-1-methyl-propyl]-8-methyl-quinoline-3-carboxamide]	–	≥ 80	–	–	–
C[C@@](Cc1ccccc1)(CC(F)(F)F)NC(=O)c1cnc2c(Cl)cccc2c1 [Compound F-20, N-[(1R)-1-benzyl-3,3,3-trifluoro-1-methyl-propyl]-8-chloro-quinoline-3-carboxamide]	–	≥ 80	–	–	–
C[C@@](Cc1ccccc1)(CC(F)(F)F)NC(=O)c1cnc2c(F)c(F)ccc2c1 [Compound F-22, N-[(1R)-1-benzyl-3,3,3-trifluoro-1-methyl-propyl]-7,8-difluoro-quinoline-3-carboxamide]	–	≥ 80	–	≥ 80	–
CC(F)(F)C[C@@](C)(Cc1ccccc1)NC(=O)c1cnc2c(F)cccc2c1 [Compound F-31, N-[(1R)-1-benzyl-3,3-difluoro-1-methyl-butyl]-8-fluoro-quinoline-3-carboxamide]	–	≥ 80	≥ 80	≥ 80	–
CC(C)CC(C)(Cc1ccccc1)NC(=O)c1cnc2c(F)cccc2c1 (stereo not drawn) [X.002, N-(1-benzyl-1,3-dimethyl-butyl)-8-fluoro-quinoline-3-carboxamide]	≥ 80	≥ 80	≥ 80	–	110 to 112
CC1(CC(C)(Cc2ccccc2)NC(=O)c2cnc3c(F)cccc3c2)CC1 (stereo not drawn) [X.003, N-[1-benzyl-1-methyl-2-(1-methylcyclopropyl)ethyl]-8-fluoro-quinoline-3-carboxamide]	≥ 80	≥ 80	–	≥ 80	126 to 129
Cc1cccc2cc(C(=O)NC(C)(Cc3ccccc3)CC(F)(F)F)cnc12 (stereo not drawn) [X.004, N-(1-benzyl-3,3,3-trifluoro-1-methyl-propyl)-8-methyl-quinoline-3-carboxamide]	–	≥ 80	≥ 80	≥ 80	120 to 123
CC(Cc1ccccc1)(CC(F)(F)F)NC(=O)c1cnc2c(Cl)cccc2c1 (stereo not drawn) [X.005, N-(1-benzyl-3,3,3-trifluoro-1-methyl-propyl)-8-chloro-quinoline-3-carboxamide]	–	≥ 80	≥ 80	≥ 80	141 to 144
CC(Cc1ccccc1)(CC(F)(F)F)NC(=O)c1cnc2c(F)cccc2c1 (stereo not drawn) [X.006, N-(1-benzyl-3,3,3-trifluoro-1-methyl-propyl)-8-fluoro-quinoline-3-carboxamide]	≥ 80	≥ 80	–	≥ 80	158 to 160
C=C(C)CC(C)(Cc1ccccc1)NC(=O)c1cnc2c(F)cccc2c1 (stereo not drawn) [X.009, N-(1-benzyl-1,3-dimethyl-but-3-enyl)-8-fluoro-quinoline-3-carboxamide]	≥ 80	≥ 80	≥ 80	≥ 80	–
C=C(C)CC(C)(Cc1ccccc1)NC(=O)c1cnc2c(F)c(F)ccc2c1 (stereo not drawn) [X.010, N-(1-benzyl-1,3-dimethyl-but-3-enyl)-7,8-difluoro-quinoline-3-carboxamide]	–	≥ 80	≥ 80	≥ 80	94 to 96
CC(C)CC(C)(Cc1cccc(F)c1)NC(=O)c1cnc2c(F)cccc2c1 (stereo not drawn) [X.011, 8-fluoro-N-[1-[(3-fluorophenyl)methyl]-1,3-dimethyl-butyl]quinoline-3-carboxamide]	≥ 80	≥ 80	≥ 80	–	45 to 47
CC(F)(F)CC(C)(Cc1ccccc1)NC(=O)c1cnc2c(F)cccc2c1 (stereo not drawn) [X.014, N-(1-benzyl-3,3-difluoro-1-methyl-butyl)-8-fluoro-quinoline-3-carboxamide]	–	≥ 80	–	≥ 80	–
CC(C)(F)CC(C)(Cc1ccccc1)NC(=O)c1cnc2c(F)cccc2c1 (stereo not drawn) [X.015, N-(1-benzyl-3-fluoro-1,3-dimethyl-butyl)-8-fluoro-quinoline-3-carboxamide]	–	≥ 80	≥ 80	≥ 80	–
CC(C)(C)CC(C)(Cc1ccccc1)NC(=O)c1cnc2c(F)cccc2c1 (stereo not drawn) [X.016, N-(1-benzyl-1,3,3-trimethyl-butyl)-8-fluoro-quinoline-3-carboxamide]	–	≥ 80	≥ 80	≥ 80	48 to 50
